The results in this text go back to ChEMBL document CHEMBL4483862, “Open-source discovery of chemical leads for next-generation chemoprotective antimalarials” (2018).

Structures are written as SMILES.

The assay has as its system Plasmodium berghei. Briefly: Luciferase/luciferin-expressing antifolate-resistant parasites were used to infect a culture of HepG2 cells that were pre-incubated with compounds. Infected hepatocytes emit light due to the luciferase reaction. Assay results are presented as the percent inhibition of light emission compared to control. […]. Particulars: sporozoite; for IC90: read-out: LUCIFERASE INFECTION ASSAY - IC90. The class given is functional.

Setting [1] is: read-out: LUCIFERASE INFECTION ASSAY - IC50.

`CCOC(=O)c1cc(-c2ccc(OC)cc2)nn1-c1cccc(C)c1`: the IC90 (commonly the point of the concentration-response curve where the effect stands at 90%) was > 10 µM. Further, the IC50 (commonly the point on the concentration scale where inhibition reaches its midpoint) (PBLUC_HILL_SLOPE 0.992, PBLUC_R_SQUARED 0.815, read-out: LUCIFERASE INFECTION ASSAY - IC50) is > 10 µM.
Consider `Cc1ccccc1CN1CCN2C=C(C(=O)Nc3cccc(OC(F)(F)F)c3)OC2=NC1=O`, for which the IC90 was > 10 µM. Moreover, the IC50 (FFLUC_HILL_SLOPE 6.71, FFLUC_R_SQUARED 0.0114, read-out: LUCIFERASE INFECTION ASSAY - IC50) is > 10 µM.
As for `O=C(NNC(=O)c1[nH]c2ccccc2c1-c1ccccc1)Nc1cccc(C(F)(F)F)c1`, the IC90 is > 7.53 µM. The IC50 under setting [1] was > 7.53 µM.
`CN(C)S(=O)(=O)c1cccc(C(=O)N(Cc2ccccc2)CC(O)COC(c2ccccc2)c2ccccc2)c1` (centres undefined): the IC90 is > 10 µM. Also, the IC50 under setting [1] is > 10 µM.
For `COc1cc(-c2cncc(Nc3cccc(C(F)(F)F)c3)n2)cc(OC)c1OC`, the concentration for an effect of 90% (IC90) is > 8.14 µM. In addition, the IC50 under setting [1] was found to be 4.6 µM.
For `CCOCCCn1c(SCC(=O)N2CCCC3CCCCC32)nc2sc(C)c(C)c2c1=O` (centres undefined), the IC90 was > 10 µM. For the same compound, the IC50 (PBLUC_HILL_SLOPE 3.41, PBLUC_R_SQUARED 0.294, read-out: LUCIFERASE INFECTION ASSAY - IC50) was found to be 7.03 µM.
On to `CC(C)CN1/C(=C\c2cccc3[nH]ccc23)C(=O)c2ccccc2S1(=O)=O`, for which the IC90 is > 8.67 µM. In addition, the IC50 (FFLUC_HILL_SLOPE 2.19, FFLUC_R_SQUARED 0.818, HEPG2TOX_HILL_SLOPE 2.77, HEPG2TOX_R_SQUARED 0.93, read-out: LUCIFERASE INFECTION ASSAY - IC50) was > 8.67 µM.
In the case of `CCOC(=O)c1cc(C#N)c(Sc2nnc(SCC3CC3)s2)nc1C(F)(F)F`, the IC90 is > 7.39 µM. The IC50 (HEPG2TOX_HILL_SLOPE 8.92, HEPG2TOX_R_SQUARED 0.488, read-out: LUCIFERASE INFECTION ASSAY - IC50) is > 7.39 µM.
In the case of `CN(C)c1cc(CNC(=O)c2cc3c(F)cccc3s2)ccn1`, the IC90 was found to be 7.57 µM. Also, the IC50 (HEPG2TOX_HILL_SLOPE 10.4, HEPG2TOX_R_SQUARED 0.0222, PBLUC_HILL_SLOPE 5.26, PBLUC_R_SQUARED 0.456, read-out: LUCIFERASE INFECTION ASSAY - IC50) came to 4.99 µM.
For `CCCc1ccc(-c2csc(NC(=O)CC(NC(=O)c3ccccc3Cl)c3ccccc3)n2)cc1` (centres undefined), the IC90 is > 10 µM. Besides, for the setting “FFLUC_HILL_SLOPE 390, FFLUC_R_SQUARED 0.412, read-out: LUCIFERASE INFECTION ASSAY - IC50”, the IC50 is > 10 µM.
As for `O=c1c(-c2cccc(Cl)c2)c[nH]n1-c1cccc(C(F)(F)F)c1`, the IC90 was > 9.74 µM. For the same compound, the IC50 (HEPG2TOX_HILL_SLOPE 3.35, HEPG2TOX_R_SQUARED 0.846, PBLUC_HILL_SLOPE 3.63, PBLUC_R_SQUARED 0.619, read-out: LUCIFERASE INFECTION ASSAY - IC50) came out at 5.69 µM.
Consider `COC(=O)c1ccc(C)c(NC(=O)CCc2ccc3c(c2)OCCO3)c1`, for which the IC90 is > 10 µM. For the same compound, under setting [1], the IC50 was > 10 µM.
For `COc1ccc(-c2cnc3cnc(-c4cccc(C)c4C)cn23)cn1`, the IC90 is > 9.99 µM. Besides, for the setting “PBLUC_HILL_SLOPE 7.63, PBLUC_R_SQUARED 0.171, read-out: LUCIFERASE INFECTION ASSAY - IC50”, the IC50 turned out to be 8.65 µM.
In the case of `CNc1nc2cnc(Nc3ccc(SC)cc3)cc2n1Cc1ccc(OC)c(OC)c1`, the IC90 was > 10 µM. In addition, the concentration for half-maximal inhibition (IC50) under setting [1] is > 10 µM.
Consider `CC1(C(=O)NC2CCN(S(C)(=O)=O)CC2)CC1(Cl)Cl` (centres undefined), for which the IC90 is > 10 µM. In addition, the IC50 under setting [1] was > 10 µM.
As to `CCOc1cc(/C=C/C(=O)c2cccs2)cc(Br)c1OC`, the IC90 was > 10 µM. Besides, under “HEPG2TOX_HILL_SLOPE 0.301, HEPG2TOX_R_SQUARED 0.1, PBLUC_HILL_SLOPE 0.921, PBLUC_R_SQUARED 0.199, read-out: LUCIFERASE INFECTION ASSAY - IC50”, the IC50 was > 10 µM.
As for `CN(C)c1ccc(CNc2nccc3nc(-c4ccc(F)c(F)c4)[nH]c23)cc1`, the IC90 was 9.24 µM. The IC50 (HEPG2TOX_HILL_SLOPE 2.98, HEPG2TOX_R_SQUARED 0.951, PBLUC_HILL_SLOPE 0.962, PBLUC_R_SQUARED 0.864, read-out: LUCIFERASE INFECTION ASSAY - IC50) is 0.941 µM.
Regarding `Nc1c(-c2ccccc2)c(CN2CCN(Cc3ccccc3)CC2)nn1-c1ccc(Cl)cc1`, the IC90 stood at 8.97 µM. Besides, for the setting “HEPG2TOX_HILL_SLOPE 3.47, HEPG2TOX_R_SQUARED 0.813, PBLUC_HILL_SLOPE 2.28, PBLUC_R_SQUARED 0.79, read-out: LUCIFERASE INFECTION ASSAY - IC50”, the IC50 amounted to 3.42 µM.
In the case of `C=CCNC(=O)COc1ccc2c(=O)c(-c3ccc(Cl)cc3)c(C)oc2c1`, the IC90 was > 8.6 µM. Moreover, the IC50 under setting [1] was > 8.6 µM.
As to `Cc1ccc(S(=O)(=O)N(C)Cc2ccc(-c3nnc4n3-c3ccccc3SC4)cc2)cc1`, the IC90 was > 10 µM. For the same compound, the IC50 under setting [1] was 3.08 µM.
`Cc1cccc(Nc2ccccc2C(=O)OCC(=O)Nc2cccc(C#N)c2)c1C`: the IC90 is > 10 µM. In addition, the IC50 (HEPG2TOX_HILL_SLOPE 6.86, HEPG2TOX_R_SQUARED 0.37, PBLUC_HILL_SLOPE 1.78, PBLUC_R_SQUARED 0.801, read-out: LUCIFERASE INFECTION ASSAY - IC50) is 3.16 µM.
As to `CCCCCCCCCCCc1nnc(SCc2ccc(Cl)cc2)n1-c1ccccc1C(F)(F)F`, the IC90 was > 6.3 µM. Further, the half-maximal inhibitory concentration (IC50) (FFLUC_HILL_SLOPE 9.94, FFLUC_R_SQUARED 0.653, read-out: LUCIFERASE INFECTION ASSAY - IC50) is > 6.3 µM.
Regarding `CCc1nc2ccccc2c(C(=O)OCC(=O)Nc2ccc(C#N)cc2)c1C`, the IC90 was > 10 µM. Besides, the IC50 (PBLUC_HILL_SLOPE 2.25, PBLUC_R_SQUARED 0.588, read-out: LUCIFERASE INFECTION ASSAY - IC50) worked out at 4.96 µM.
Consider `CC(C)(C)c1csc(NC(=O)c2ccc(Br)cc2)n1`, for which the IC90 amounted to 8.74 µM. For the same compound, the IC50 (HEPG2TOX_HILL_SLOPE 15.1, HEPG2TOX_R_SQUARED 0.819, PBLUC_HILL_SLOPE 4.4, PBLUC_R_SQUARED 0.25, read-out: LUCIFERASE INFECTION ASSAY - IC50) came to 5.3 µM.
With `Cc1oc(-c2cccs2)nc1CC(=O)NNC(=O)CC12CC3CC(CC(C3)C1)C2`, the concentration for an effect of 90% (IC90) is 4.57 µM. For the same compound, the IC50 (PBLUC_HILL_SLOPE 9.4, PBLUC_R_SQUARED 0.433, read-out: LUCIFERASE INFECTION ASSAY - IC50) is 3.62 µM.
Take `CCCc1ccc(C(=O)C(C)Sc2nnc(Cc3cccc4ccccc34)n2N)cc1` (centres undefined): the IC90 was > 10 µM. Further, the IC50 (FFLUC_HILL_SLOPE 1.29, FFLUC_R_SQUARED 0.471, read-out: LUCIFERASE INFECTION ASSAY - IC50) is > 10 µM.
For the compound `CC(c1ccc(-n2cncn2)cc1)N(C)CC(=O)Nc1ccc(OC(F)(F)F)cc1` (centres undefined), the IC90 is > 10 µM. In addition, the half-inhibitory concentration (IC50) (PBLUC_HILL_SLOPE 12.9, PBLUC_R_SQUARED 0.556, read-out: LUCIFERASE INFECTION ASSAY - IC50) turned out to be 9.67 µM.
With `c1ccc(CN2CCC(Nc3nc(-c4ccccn4)nc4scc(-c5ccccc5)c34)CC2)cc1`, the concentration for an effect of 90% (IC90) is > 10 µM. Also, under setting [1], the IC50 was > 10 µM.
Take `Cc1nn(Cc2ccccc2)c(C)c1C(=O)N1CCN(CCOc2ccc(Cl)cc2)CC1`: the IC90 was > 10 µM. Further, the IC50 (PBLUC_HILL_SLOPE 3.21, PBLUC_R_SQUARED 0.27, read-out: LUCIFERASE INFECTION ASSAY - IC50) amounted to 9.94 µM.
Regarding `c1cc2c(cc1-c1cn3c(-c4ccc5c(c4)OCO5)cnc3cn1)OCO2`, the IC90 amounted to 8.22 µM. In addition, the IC50 (HEPG2TOX_HILL_SLOPE 1.25, HEPG2TOX_R_SQUARED 0.883, PBLUC_HILL_SLOPE 2.72, PBLUC_R_SQUARED 0.694, read-out: LUCIFERASE INFECTION ASSAY - IC50) came to 3.66 µM.
On to `COc1ccc(C(NC(=O)c2ccc(-n3cccc3)cc2)c2nccn2C)cc1` (centres undefined), for which the IC90 is > 10 µM. Besides, the IC50 under setting [1] is > 10 µM.
Turning to `CCCc1cc(NCc2cccnc2)n2ncc(-c3ccccc3)c2n1`, the 90% effect concentration (IC90) was > 9.61 µM. For the same compound, the IC50 (PBLUC_HILL_SLOPE 2.86, PBLUC_R_SQUARED 0.143, read-out: LUCIFERASE INFECTION ASSAY - IC50) was found to be 6.97 µM.
Take `Cn1nnnc1Sc1nc(-c2ccccc2)nc2ccccc12`: the IC90 is 5.09 µM. Moreover, under “HEPG2TOX_HILL_SLOPE 4.8, HEPG2TOX_R_SQUARED 0.994, PBLUC_HILL_SLOPE 8.61, PBLUC_R_SQUARED 0.614, read-out: LUCIFERASE INFECTION ASSAY - IC50”, the IC50 was 3.95 µM.
As for `O=C(Nc1ccc2oc(=O)[nH]c2c1)c1cnn(-c2ccc(Cl)cc2)c1`, the IC90 is > 10 µM. Under setting [1], the IC50 was > 10 µM.
`Cc1c(C(=O)C(F)(F)F)c(-c2nn(-c3ccccc3)c(NC(=O)C(F)(F)F)c2C(=O)C(F)(F)F)c(C)n1-c1ccc(F)cc1`: the IC90 is > 10 µM. Moreover, under “FFLUC_HILL_SLOPE 13.3, FFLUC_R_SQUARED 0.772, PBLUC_HILL_SLOPE 3.36, PBLUC_R_SQUARED 0.0987, read-out: LUCIFERASE INFECTION ASSAY - IC50”, the IC50 came to 8.23 µM.
With `O=C(Nc1ccccc1O)c1ccc(Cn2ccnc2)cc1`, the IC90 was 6.19 µM. The IC50 (PBLUC_HILL_SLOPE 1.6, PBLUC_R_SQUARED 0.598, read-out: LUCIFERASE INFECTION ASSAY - IC50) came to 1.57 µM.
For `CCOc1c(Br)cc(C2NCC(c3cccc(OC)c3OC)c3c2[nH]c2ccccc32)cc1OC` (centres undefined), the IC90 is > 10 µM. For the same compound, where the note is “FFLUC_HILL_SLOPE 3.42, FFLUC_R_SQUARED 0.537, read-out: LUCIFERASE INFECTION ASSAY - IC50”, the IC50 is > 10 µM.
